Molecules are shown by their SMILES.

For the assay, the target named is tyrosinase. Briefly: Determination of the activity of compounds inhibiting tyrosinase (L-tyrosine substrate, absorbance at 475 nm). The class given is biochemical. Particulars: for IC50: L-tyrosine 0.1 mg/mL, tyrosinase 48 U/mL, pH 6.8, 37° C. 30 min, n = 3, read-out: IC50 ± SEM (tyrosinase inhibition); for tyrosinase inhibitory activity (in words, compared with aloesin): comparison with positive control aloesin. The method, then: Method for determining the activity of inhibiting tyrosinase: Firstly, adding the sample: 40 μL (10% DMSO, setting different concentrations (0, 25, 50, 100, 200 μg/mL)) into a 96-well plate (aloesin is the positive control), then adding L-tyrosine: 40 μL (0.1 mg/mL, dissolving in 0.1M potassium phosphate buffer solution, pH=6.8), tyrosinase: 40 μL (48 U/mL, dissolving in 0.1M potassium phosphate buffer solution, pH=6.8), and finally diluting the volume to 200 μL with potassium phosphate buffer solution, and detecting the absorbance at 475 nm on 0 min; after incubating at 37° C. for 30 min, measuring the absorbance.

A word on the IC50: it is the concentration at which inhibition is half-maximal. With `CC(=O)Cc1cc(=O)c2c(C)cc(O)c([C@@H]3O[C@H](CO)[C@@H](O)[C@H](O)[C@H]3O)c2o1` [Aloesin, aloesin, reference compound], the IC50 came out at 2700 ± 40 µM.
With `Cc1cc(=O)c2c(C)cc(O)cc2o1` [Compound 1-1], the IC50 came out at 9300 ± 90 µM.
Turning to `CCc1cc(=O)c2c(C)cc(O)cc2o1` [Compound 1-2], the IC50 is 6200 ± 70 µM.
As to `CCCc1cc(=O)c2c(C)cc(O)cc2o1` [Compound 1-3], the IC50 was found to be 2400 ± 100 µM.
Still for that read-out and setting: the same measure for `Cc1cc(O)cc2oc(C(C)(C)C)cc(=O)c12` [Compound 1-4]: 5400 ± 30 µM.
For the compound `CCCc1cc(=O)c2c(C)cc(OC)cc2o1` [Compound 1-5], the IC50 was 200 ± 70 µM and the “tyrosinase inhibitory activity (in words, compared with aloesin)” value is listed as “higher than the tyrosinase inhibitory activity of aloesin”.
On the same counts, the results for `CCCc1cc(=O)c2c(C)cc(OCC)cc2o1` [Compound 1-6] are 600 ± 30 µM and “higher than the tyrosinase inhibitory activity of aloesin”.
